Data on 15 compounds can be found in patent US9963464B2, “Macrocyclic compounds” (Bayer Pharma Aktiengesellschaft, priority 2014, dated 2018).

For the first experiment, the system named is B16F10 cells. Nature of the experiment: Proliferation assay B16F10. The format is cell-based, mouse. Conditions: Mus musculus, B16-F10, 96 h; 4 days, crystal violet; read-out: Inhibition of B16F10 cell proliferation IC50. As to the method: Cultivated tumour cells (HeLa, human cervical tumour cells, ATCC CCL-2; NCI-H460, human non-small cell lung carcinoma cells, ATCC HTB-177; A2780, human ovarian carcinoma cells, ECACC #93112519; DU 145, hormone-independent human prostate carcinoma cells, ATCC HTB-81; HeLa-MaTu-ADR, multidrug-resistant human cervical carcinoma cells, EPO-GmbH Berlin; Caco-2, human colorectal carcinoma cells, ATCC HTB-37; B16F10, mouse melanoma cells, ATCC CRL-6475) were plated at a density of 5,000 cells/well (DU145, HeLa-MaTu-ADR), 3,000 cells/well (NCI-H460, HeLa), 2,500 cells/well (A2780), 1,500 cells/well (Caco-2), or 1,000 cells/well (B16F10) in a 96-well multititer plate in 200 μL of their respective growth medium supplemented 10% fetal calf serum. After 24 hours, the cells of one plate (zero-point plate) were stained with crystal violet (see below), while the medium of the other plates was replaced by fresh culture medium (200 μl), to which the test substances were added in various concentrations (0 μM, as well as in the range of 0.001-10 μM). The cells were incubated for 4 days in the presence of test substances. Cell proliferation was determined by staining the cells with crystal violet: the cells were fixed by adding 20 μl/measuring point of an 11% glutaric aldehyde solution for 15 minutes at room temperature. After three washing cycles of the fixed cells with water, the plates were dried at room temperature. The cells were stained by adding 100 μl/measuring point of a 0.1% crystal violet solution (pH 3.0). After three washing cycles of the stained cells with water, the plates were dried at room temperature. The dye was dissolved by adding 100 μl/measuring point of a 10% acetic acid solution. The extinction was determined by photometry at a wavelength of 595 nm. The change of cell number, in percent, was calculated by normalization of the measured values to the extinction values of the zero-point plate (=0%) and the extinction of the untreated (0 μm) cells (=100%). The IC50 values (inhibitory concentration at 50% of maximal effect) were determined by means of a 4 parameter fit. Non-adherent MOLM-13 human acute myeloid leukemia cells (DSMZ ACC 554) were seeded at a density of 5,000 cells/well in a 96-well multititer plate in 100 μL of growth medium supplemented 10% fetal calf serum. After 24 hours, cell viability of one plate (zero-point plate) was determined with the Cell Titre-Glo Luminescent Cell Viability Assay (Promega), while 50 μL of test compound containing medium was added to the wells of the other plates (final concentrations in the range of 0.001-1 μM and DMSO controls). Cell viability was assessed after 72-hour exposure with the Cell Titre-Glo Luminescent Cell Viability Assay (Promega). IC50 values (inhibitory concentration at 50% of maximal effect) were determined by means of a 4 parameter fit on measurement data which were normalized to vehicle (DMSO) treated cells (=100%) and measurement readings taken immediately before compound exposure (=0%).
Consider `CS(=N)(=O)Cc1cc2cc(c1)OCCCCOc1cc(F)ccc1-c1nc(ncc1F)N2` (racemic) [Example 1, (rac)-16,20-Difluoro-9-[(S-methylsulfonimidoyl)methyl]-2,3,4,5-tetrahydro-12H-13,17-(azeno)-11,7-(metheno)-1,6,12,14-benzodioxadiazacyclononadecine], for which the IC50 came to 14 nM.

Regarding `C[S+]([O-])Cc1cc2nc(c1)OCCCOc1cc(F)ccc1-c1cc(ncc1F)N2` (racemic) [Example 4, (rac)-15,19-Difluoro-8-[(methylsulfinyl)methyl]-3,4-dihydro-2H,11H-10,6-(azeno)-12,16-(metheno)-1,5,11,13-benzodioxadiazacyclooctadecine], the IC50 stood at 14 nM.

Regarding `CS(=N)(=O)Cc1cc2nc(c1)OCCCOc1cc(F)ccc1-c1cc(ncc1F)N2` (racemic) [Example 5, (rac)-15,19-Difluoro-8-[(S-methylsulfonimidoyl)methyl]-3,4-dihydro-2H,11H-10,6-(azeno)-12,16-(metheno)-1,5,11,13-benzodioxadiazacyclooctadecine], the IC50 worked out at 4 nM.

Another experiment addresses T1, CDK2/CycE (Homo sapiens, UniProt P24941).
T1 construct: GST; purchased ProQinase GmbH (Freiburg, Germany); host or cells: insect cells (Sf9)
Nature of the experiment: CDK2/CycE kinase assay (TR-FRET, Method 2a). The format is biochemical. Conditions: 10 μM ATP. From the text:
2a. CDK2/CycE Kinase Assay:
CDK2/CycE-inhibitory activity of compounds of the present invention was quantified employing the CDK2/CycE TR-FRET assay as described in the following paragraphs:
Recombinant fusion proteins of GST and human CDK2 and of GST and human CycE, expressed in insect cells (Sf9) and purified by Glutathion-Sepharose affinity chromatography, were purchased from ProQinase GmbH (Freiburg, Germany). As substrate for the kinase reaction biotinylated peptide biotin-Ttds-YISPLKSPYKISEG (C-terminus in amid form) was used which can be purchased e.g. from the company JERINI Peptide Technologies (Berlin, Germany).
For the assay 50 nl of a 100 fold concentrated solution of the test compound in DMSO was pipetted into a black low volume 384 well microtiter plate (Greiner Bio-One, Frickenhausen, Germany), 2 μl of a solution of CDK2/CycE in aqueous assay buffer [50 mM Tris/HCl pH 8.0, 10 mM MgCl2, 1.0 mM dithiothreitol, 0.1 mM sodium ortho-vanadate, 0.01% (v/v) Nonidet-P40 (Sigma)] were added and the mixture was incubated for 15 min at 22° C. to allow pre-binding of the test compounds to the enzyme before the start of the kinase reaction. […] The concentration of CDK2/CycE was adjusted depending of the activity of the enzyme lot and was chosen appropriate to have the assay in the linear range, typical concentrations were in the range of 130 ng/mL. The reaction was stopped by the addition of 5 μl of a solution of TR-FRET detection reagents (0.2 μM streptavidine-XL665 [Cisbio Bioassays, Codolet, France] and 1 nM anti-RB(pSer807/pSer811)-antibody from BD Pharmingen [#558389] and 1.2 nM LANCE EU-W1024 labeled anti-mouse IgG antibody [Perkin-Elmer, product no. AD0077]) in an aqueous EDTA-solution (100 mM EDTA, 0.2% (w/v) bovine serum albumin in 100 mM HEPES pH 7.5).
The resulting mixture was incubated 1 h at 22° C. to allow the formation of complex between the phosphorylated biotinylated peptide and the detection reagents. Subsequently the amount of phosphorylated substrate was evaluated by measurement of the resonance energy transfer from the Eu-chelate to the streptavidine-XL. Therefore, the fluorescence emissions at 620 nm and 665 nm after excitation at 350 nm was measured in a TR-FRET reader, e.g. a Rubystar (BMG Labtechnologies, Offenburg, Germany) or a Viewlux (Perkin-Elmer). The ratio of the emissions at 665 nm and at […] was taken as the measure for the amount of phosphorylated substrate. The data were normalised (enzyme reaction without inhibitor=0% inhibition, all other assay components but no enzyme=100% inhibition).
A general note: TR-FRET usually uses a lanthanide donor and a delayed reading to cut background.
Turning to `CS(=N)(=O)Cc1cc2cc(c1)OCCCCOc1cc(F)ccc1-c1nc(ncc1F)N2` (racemic) [Example 1, (rac)-16,20-Difluoro-9-[(S-methylsulfonimidoyl)methyl]-2,3,4,5-tetrahydro-12H-13,17-(azeno)-11,7-(metheno)-1,6,12,14-benzodioxadiazacyclononadecine], the IC50 was determined as 21.2 nM.

Turning to `C[S+]([O-])Cc1cc2nc(c1)OCCCOc1cc(F)ccc1-c1cc(ncc1F)N2` (racemic) [Example 4, (rac)-15,19-Difluoro-8-[(methylsulfinyl)methyl]-3,4-dihydro-2H,11H-10,6-(azeno)-12,16-(metheno)-1,5,11,13-benzodioxadiazacyclooctadecine], the IC50 was 4.6 nM.

`CS(=N)(=O)Cc1cc2nc(c1)OCCCOc1cc(F)ccc1-c1cc(ncc1F)N2` (racemic) [Example 5, (rac)-15,19-Difluoro-8-[(S-methylsulfonimidoyl)methyl]-3,4-dihydro-2H,11H-10,6-(azeno)-12,16-(metheno)-1,5,11,13-benzodioxadiazacyclooctadecine] came in with an IC50 of 2 nM.

As to `CCNC(=O)N=S(C)(=O)Cc1cc2nc(c1)OCCCOc1cc(F)ccc1-c1cc(ncc1F)N2` (racemic) [Example 17, (rac)-1-[{[15,19-difluoro-3,4-dihydro-2H,11H-10,6-(azeno)-12,16-(metheno)-1,5,11,13-benzodioxadiazacyclooctadecin-8-yl]methyl}(methyl)oxido-λ^6-sulfanylidene]-3-ethylurea], the IC50 was 5.6 nM.

On to `CC(=O)N=S(C)(=O)Cc1cc2nc(c1)OCCCOc1cc(F)ccc1-c1cc(ncc1F)N2` (racemic) [Example 18, (rac)-N-[{[15,19-difluoro-3,4-dihydro-2H,11H-10,6-(azeno)-12,16-(metheno)-1,5,11,13-benzodioxadiazacyclooctadecin-8-yl]methyl}(methyl)oxido-λ^6-sulfanylidene]acetamide], for which the IC50 is 8.2 nM.

For the compound `CN=S(C)(=O)Cc1cc2nc(c1)OCCCOc1cc(F)ccc1-c1cc(ncc1F)N2` (racemic) [Example 19, (rac)-8-[(N,S-dimethylsulfonimidoyl)methyl]-15,19-difluoro-3,4-dihydro-2H,11H-10,6-(azeno)-12,16-(metheno)-1,5,11,13-benzodioxadiazacyclooctadecine], the IC50 stood at 15.4 nM.

For `CCOC(=O)N=S(C)(=O)Cc1cc2nc(c1)OCCCOc1cc(F)ccc1-c1cc(ncc1F)N2` (racemic) [Example 20, (rac)-ethyl [{[15,19-difluoro-3,4-dihydro-2H,11H-10,6-(azeno)-12,16-(metheno)-1,5,11,13-benzodioxadiazacyclooctadecin-8-yl]methyl}(methyl)oxido-λ^6-sulfanylidene]carbamate], the IC50 came out at 11.7 nM.

With `CS(=O)(Cc1cc2nc(c1)OCCCOc1cc(F)ccc1-c1cc(ncc1F)N2)=NC(=O)OCCCl` (racemic) [Example 21, (rac)-2-chloroethyl [{[15,19-difluoro-3,4-dihydro-2H,11H-10,6-(azeno)-12,16-(metheno)-1,5,11,13-benzodioxadiazacyclooctadecin-8-yl]methyl}(methyl)oxido-λ^6-sulfanylidene]carbamate], the IC50 worked out at 11.6 nM.

With `CS(=O)(=O)N=S(C)(=O)Cc1cc2nc(c1)OCCCOc1cc(F)ccc1-c1cc(ncc1F)N2` (racemic) [Example 22, (rac)-N-[{[15,19-difluoro-3,4-dihydro-2H,11H-10,6-(azeno)-12,16-(metheno)-1,5,11,13-benzodioxadiazacyclooctadecin-8-yl]methyl}(methyl)oxido-λ^6-sulfanylidene]methanesulfonamide], the IC50 is 19.3 nM.

Regarding `CS(=O)(Cc1cc2nc(c1)OCCCOc1cc(F)ccc1-c1cc(ncc1F)N2)=NS(=O)(=O)CCN` (racemic) [Example 23, (rac)-2-amino-N-[{[15,19-difluoro-3,4-dihydro-2H,11H-10,6-(azeno)-12,16-(metheno)-1,5,11,13-benzodioxadiazacyclooctadecin-8-yl]methyl}(methyl)oxido-λ^6-sulfanylidene]ethanesulfonamide], the IC50 amounted to 30.2 nM.

With `CS(=O)(Cc1cc2nc(c1)OCCCOc1cc(F)ccc1-c1cc(ncc1F)N2)=NS(=O)(=O)CCN.O=C(O)C(F)(F)F` (racemic) [Example 24, (rac)-2-{[{[15,19-difluoro-3,4-dihydro-2H,11H-10,6-(azeno)-12,16-(metheno)-1,5,11,13-benzodioxadiazacyclooctadecin-8-yl]methyl}(methyl)oxido-λ^6-sulfanylidene]sulfamoyl}ethanaminium trifluoroacetate], the IC50 is 13.5 nM.

As for `CS(=O)(Cc1cc2nc(c1)OCCCOc1cc(F)ccc1-c1cc(ncc1F)N2)=NC(=O)OCCN` (racemic) [Example 25, (rac)-2-aminoethyl [{[15,19-difluoro-3,4-dihydro-2H,11H-10,6-(azeno)-12,16-(metheno)-1,5,11,13-benzodioxadiazacyclooctadecin-8-yl]methyl}(methyl)oxido-λ^6-sulfanylidene]carbamate], the IC50 is 5.6 nM.

Take `CSCc1cc2nc(c1)OCCOc1cc(F)ccc1-c1cc(ncc1F)N2` [Example 9, 14,18-Difluoro-7-[(methylsulfanyl)methyl]-2,3-dihydro-10H-9,5-(azeno)-11,15-(metheno)-1,4,10,12-benzodioxadiazacycloheptadecine]: the IC50 is 18200 nM.

Regarding `NCCS(=O)(=O)Cc1cc2nc(c1)OCCCOc1cc(F)ccc1-c1cc(ncc1F)N2` [Example 26, 2-({[15,19-difluoro-3,4-dihydro-2H,11H-10,6-(azeno)-12,16-(metheno)-1,5,11,13-benzodioxadiazacyclooctadecin-8-yl]methyl}sulfonyl)ethanamine], the IC50 came out at 10 nM.

“({[15,19-difluoro-3,4-dihydro-2H,11H-10,6-(azeno)-12,16-(metheno)-1,5,11,13-benzodioxadiazacyclooctadecin-8-yl]methyl}sulfonyl)acetic acid [Example 27]”: the IC50 amounted to 2.3 nM.
